Measured values reported in patent US12594276B2, “Inhibitors of human immunodeficiency virus replication” (ViiV Healthcare UK (No.5) Limited, priority 2024, dated 2026).

Key:
[1] = test system: recombinant NL4-3 virus (nef section replaced with Renilla luciferase gene) in MT-2 cells; experiment: HIV cell culture assay (antiviral activity, luciferase readout); format: cell-based; conditions: Renilla, NL43, MT-2 cells infected for 4-5 days with recombinant NL4-3 Renilla luciferase virus
Procedure, shortened: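 Read-out: Renilla luciferase (live-cell substrate) in infected MT-2 cells after 4-5 d with serial compound dilutions. Virus from 293T transfection of the proviral clone, titered by luciferase in MT-2. EC50 via median effect equation fit.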

[2] = Compound cytotoxicity, XTT-based colorimetric assay; format: cell-based; conditions: human; uninfected MT2 cells, day 4, XTT; read-out: CC50
Procedure, shortened: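 Uninfected MT2 cells, antiviral-assay protocol without virus; XTT colorimetric readout day 4; CC50 reported.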

Which EC50 [1] does the source give for `COCCNc1cc(C2CCC(F)(F)CC2)nc2nc([C@H](Cc3cc(F)cc(F)c3)NC(=O)Cn3nc(C(F)F)c4c3C(F)(F)[C@@H]3C[C@H]43)n(-c3ccc(Cl)c4c(NS(C)(=O)=O)nn(CCN5CCC(F)CC5)c34)c(=O)c12` (atropisomer, axis not shown; (P)) [Example 415, N-[(1S)-1-[(3P)-3-{4-chloro-1-[2-(4-fluoropiperidin-1-yl)ethyl]-3-methanesulfonamido-1H-indazol-7-yl}-7-(4,4-difluorocyclohexyl)-5-[(2-methoxyethyl)amino]-4-oxo-3H,4H-pyrido[2,3-d]pyrimidin-2-yl]-2-(3,5-difluorophenyl)ethyl]-2-[(2S,4R)-9-(difluoromethyl)-5,5-difluoro-7,8-diazatricyclo[4.3.0.0^2,^4]nona-1(6),8-dien-7-yl]acetamide] here?
Its EC50 is 0.013 nM.

And the CC50 at 4 days [2]?
Its CC50 at 4 days is > 20 nM.

Which EC50 [1] does the source give for `COCCCn1nc(NS(C)(=O)=O)c2c(Cl)ccc(-n3c([C@H](Cc4cc(F)cc(F)c4)NC(=O)Cn4nc(C5CC5)c5c4C[C@@H]4C[C@H]54)nc4nc(C5(F)CCC(F)(F)CC5)cc(CN5C[C@@H](C)O[C@@H](C)C5)c4c3=O)c21` (atropisomer, axis not shown; (P)) [Example 602, N-[(1S)-1-[(3P)-3-[4-chloro-3-methanesulfonamido-1-(3-methoxypropyl)-1H-indazol-7-yl]-5-{[(2R,6S)-2,6-dimethylmorpholin-4-yl]methyl}-4-oxo-7-(1,4,4-trifluorocyclohexyl)-3H,4H-pyrido[2,3-d]pyrimidin-2-yl]-2-(3,5-difluorophenyl)ethyl]-2-[(2S,4S)-9-cyclopropyl-7,8-diazatricyclo[4.3.0.0^2,^4]nona-1(6),8-dien-7-yl]acetamide] here?
The EC50 was 0.017 nM.

What about the CC50 at 4 days [2] of the same compound?
The CC50 at 4 days was > 20 nM.

With `CC1(C)CN(CCn2nc(NS(C)(=O)=O)c3c(Cl)ccc(-n4c([C@H](Cc5cc(F)cc(F)c5)NC(=O)Cn5nc(C6CC6)c6c5C[C@@H]5C[C@H]65)nc5nc(C6CCC(F)(F)CC6)ccc5c4=O)c32)CC(C)(C)O1` (atropisomer, axis not shown; (P)) [Example 424, N-[(1S)-1-[(3P)-3-{4-chloro-3-methanesulfonamido-1-[2-(2,2,6,6-tetramethylmorpholin-4-yl)ethyl]-1H-indazol-7-yl}-7-(4,4-difluorocyclohexyl)-4-oxo-3H,4H-pyrido[2,3-d]pyrimidin-2-yl]-2-(3,5-difluorophenyl)ethyl]-2-[(2S,4S)-9-cyclopropyl-7,8-diazatricyclo[4.3.0.0^2,^4]nona-1(6),8-dien-7-yl]acetamide] as the compound, how does the EC50 [1] read?
Its EC50 is 0.012 nM.

What about the CC50 at 4 days [2] of the same compound?
The CC50 at 4 days was > 20 nM.

What does the source list for `COCCCn1nc(NS(C)(=O)=O)c2c(Cl)ccc(-n3c([C@H](Cc4cc(F)cc(F)c4)NC(=O)Cn4nc(C(F)F)c5c4C(F)(F)[C@@H]4C[C@H]54)nc4nc(C5CCC(F)(F)CC5)cc(C)c4c3=O)c21` (atropisomer, axis not shown; (P)) [Example 90, N-[(1S)-1-[(3P)-3-[4-chloro-3-methanesulfonamido-1-(3-methoxypropyl)-1H-indazol-7-yl]-7-(4,4-difluorocyclohexyl)-5-methyl-4-oxo-3H,4H-pyrido[2,3-d]pyrimidin-2-yl]-2-(3,5-difluorophenyl)ethyl]-2-[(2S,4R)-9-(difluoromethyl)-5,5-difluoro-7,8-diazatricyclo[4.3.0.0^2,^4]nona-1(6),8-dien-7-yl]acetamide]?
EC50 [1]: 0.018 nM; CC50 at 4 days [2]: > 50 nM

Which EC50 [1] does the source give for `COCCCn1nc(NS(C)(=O)=O)c2c(Cl)ccc(-n3c([C@H](Cc4cc(F)cc(F)c4)NC(=O)Cn4nc(C(F)F)c5c4C(F)(F)[C@@H]4C[C@H]54)nc4nc(C5CCC(F)(F)CC5)cc(CN5C[C@@H](C)O[C@@H](C)C5)c4c3=O)c21` (atropisomer, axis not shown; (P)) [Example 448, N-[(1S)-1-[(3P)-3-[4-chloro-3-methanesulfonamido-1-(3-methoxypropyl)-1H-indazol-7-yl]-7-(4,4-difluorocyclohexyl)-5-{[(2R,6S)-2,6-dimethylmorpholin-4-yl]methyl}-4-oxo-3H,4H-pyrido[2,3-d]pyrimidin-2-yl]-2-(3,5-difluorophenyl)ethyl]-2-[(2S,4R)-9-(difluoromethyl)-5,5-difluoro-7,8-diazatricyclo[4.3.0.0^2,4]nona-1(6),8-dien-7-yl]acetamide] here?
The EC50 was 0.009 nM.

And the CC50 at 4 days [2]?
The CC50 at 4 days was > 20 nM.

What does the source list for `Cc1cc(C2CCC(F)(F)CC2)nc2nc([C@H](Cc3cc(F)cc(F)c3)NC(=O)Cn3nc(C(F)F)c4c3C(F)(F)[C@@H]3C[C@H]43)n(-c3ccc(Cl)c4c(NS(C)(=O)=O)nn(CCOCC(F)(F)F)c34)c(=O)c12` (atropisomer, axis not shown; (P)) [Example 72, N-[(1S)-1-[(3P)-3-{4-chloro-3-methanesulfonamido-1-[2-(2,2,2-trifluoroethoxy)ethyl]-1H-indazol-7-yl}-7-(4,4-difluorocyclohexyl)-5-methyl-4-oxo-3H,4H-pyrido[2,3-d]pyrimidin-2-yl]-2-(3,5-difluorophenyl)ethyl]-2-[(2S,4R)-9-(difluoromethyl)-5,5-difluoro-7,8-diazatricyclo[4.3.0.0^2,^4]nona-1(6),8-dien-7-yl]acetamide]?
EC50 [1]: 0.029 nM; CC50 at 4 days [2]: > 50 nM

For `Cc1cc(C2CCC(F)(F)CC2)nc2nc([C@H](Cc3cc(F)cc(F)c3)NC(=O)Cn3nc(C4CC4)c4c3C[C@@H]3C[C@H]43)n(-c3ccc(Cl)c4c(NS(C)(=O)=O)nn(CCN5CC(F)(F)C(F)(F)C5)c34)c(=O)c12` (atropisomer, axis not shown; (P)) [Example 248, N-[(1S)-1-[(3P)-3-{4-chloro-3-methanesulfonamido-1-[2-(3,3,4,4-tetrafluoropyrrolidin-1-yl)ethyl]-1H-indazol-7-yl}-7-(4,4-difluorocyclohexyl)-5-methyl-4-oxo-3H,4H-pyrido[2,3-d]pyrimidin-2-yl]-2-(3,5-difluorophenyl)ethyl]-2-[(2S,4S)-9-cyclopropyl-7,8-diazatricyclo[4.3.0.0^2,^4]nona-1(6),8-dien-7-yl]acetamide], which EC50 [1] is on record?
Its EC50 is 0.018 nM.

What about the CC50 at 4 days [2] of the same compound?
The CC50 at 4 days was > 50 nM.

For `Cc1cc(C2(F)CCC(F)(F)CC2)nc2nc([C@H](Cc3cc(F)cc(F)c3)NC(=O)Cn3nc(C(F)F)c4c3C(F)(F)[C@@H]3C[C@H]43)n(-c3ccc(Cl)c4c(NS(C)(=O)=O)nn([C@H](C)C(=O)N5C[C@@H](C)O[C@@H](C)C5)c34)c(=O)c12` (atropisomer, axis not shown; (P)) [Example 743, N-[(1S)-1-[(3P)-3-{4-chloro-1-[(2R)-1-[(2R,6S)-2,6-dimethylmorpholin-4-yl]-1-oxopropan-2-yl]-3-methanesulfonamido-1H-indazol-7-yl}-5-methyl-4-oxo-7-(1,4,4-trifluorocyclohexyl)-3H,4H-pyrido[2,3-d]pyrimidin-2-yl]-2-(3,5-difluorophenyl)ethyl]-2-[(2S,4R)-9-(difluoromethyl)-5,5-difluoro-7,8-diazatricyclo[4.3.0.0^2,^4]nona-1(6),8-dien-7-yl]acetamide], which EC50 [1] is on record?
Its EC50 is 0.016 nM.

And the CC50 at 4 days [2]?
The CC50 at 4 days was > 20 nM.

For `Cc1cc(C2CCC(F)(F)CC2)nc2nc([C@H](Cc3cc(F)cc(F)c3)NC(=O)Cn3nc(C(F)F)c4c3C(F)(F)[C@@H]3C[C@H]43)n(-c3ccc(Cl)c4c(NS(C)(=O)=O)nn(CCN5C[C@@H]6C[C@H]5CC6(F)F)c34)c(=O)c12` (atropisomer, axis not shown; (P)) [Example 310, N-[(1S)-1-[(3P)-3-(4-chloro-1-{2-[(1S,4S)-5,5-difluoro-2-azabicyclo[2.2.1]heptan-2-yl]ethyl}-3-methanesulfonamido-1H-indazol-7-yl)-7-(4,4-difluorocyclohexyl)-5-methyl-4-oxo-3H,4H-pyrido[2,3-d]pyrimidin-2-yl]-2-(3,5-difluorophenyl)ethyl]-2-[(2S,4R)-9-(difluoromethyl)-5,5-difluoro-7,8-diazatricyclo[4.3.0.0^2,^4]nona-1(6),8-dien-7-yl]acetamide], which EC50 [1] is on record?
Its EC50 is 0.019 nM.

And the CC50 at 4 days [2]?
The CC50 at 4 days was > 50 nM.

What does the source list for `Cc1cc(C2(F)CCC(F)(F)CC2)nc2nc([C@H](Cc3cc(F)cc(F)c3)NC(=O)Cn3nc([C@H]4CC4(F)F)c4c3C[C@H]3C[C@@H]43)n(-c3ccc(Cl)c4c(NS(C)(=O)=O)nn(CCN5C[C@H](F)C[C@H](F)C5)c34)c(=O)c12` (atropisomer, axis not shown; (P)) [Example 573, N-[(1S)-1-[(3P)-3-(4-chloro-1-{2-[(3R,5S)-3,5-difluoropiperidin-1-yl]ethyl}-3-methanesulfonamido-1H-indazol-7-yl)-5-methyl-4-oxo-7-(1,4,4-trifluorocyclohexyl)-3H,4H-pyrido[2,3-d]pyrimidin-2-yl]-2-(3,5-difluorophenyl)ethyl]-2-[(2R,4R)-9-[(1R)-2,2-difluorocyclopropyl]-7,8-diazatricyclo[4.3.0.0^2,^4]nona-1(6),8-dien-7-yl]acetamide]?
EC50 [1]: 0.012 nM; CC50 at 4 days [2]: > 20 nM

What does the source list for `Cc1cc(C2(F)CCC(F)(F)CC2)nc2nc([C@H](Cc3cc(F)cc(F)c3)NC(=O)Cn3nc(C(F)F)c4c3C(F)(F)[C@@H]3C[C@H]43)n(-c3ccc(Cl)c4c(NS(C)(=O)=O)nn(C[C@H](C)N5CC(C)(C)OC(C)(C)C5)c34)c(=O)c12` (atropisomer, axis not shown; (P)) [Example 717, N-[(1S)-1-[(3P)-3-{4-chloro-3-methanesulfonamido-1-[(2S)-2-(2,2,6,6-tetramethylmorpholin-4-yl)propyl]-1H-indazol-7-yl}-5-methyl-4-oxo-7-(1,4,4-trifluorocyclohexyl)-3H,4H-pyrido[2,3-d]pyrimidin-2-yl]-2-(3,5-difluorophenyl)ethyl]-2-[(2S,4R)-9-(difluoromethyl)-5,5-difluoro-7,8-diazatricyclo[4.3.0.0^2,^4]nona-1(6),8-dien-7-yl]acetamide]?
EC50 [1]: 0.032 nM; CC50 at 4 days [2]: > 20 nM
